The test system of one experiment is mouse bone marrow cells. In words: Hematopoietic progenitor clonogenic (CFU) assay of bone marrow after 7 Gy TBI. The experiment is classed as in vivo. Here is the method:
Hematopoietic Progenitor Clonogenic Assay: Clonogenicity of mouse bone marrow cells was quantified in standard semisolid cultures using 1 mL of Methocult GF+ system for mouse cells (Stem Cell Technologies Inc., Vancouver, BC) according to the manufacturer's instructions. Briefly, colony forming units (CFU) were assayed on days 0 (2 h post-TBI), 1, 3, 7, 15, and 30 after 7 Gy exposure or unirradiated mice. Cells from three femurs from different animals were pooled, washed twice with IMDM and seeded at 1 to 5×10^4 cells per 35 mm cell culture dishes (BD Biosciences, San Jose, Calif.). Each sample was plated in duplicate to be scored 14 days after plating. Granulocyte-macrophage colony forming units (CFU-GM), granulocyte-erythrocyte-monocyte-[…] CFU (CFU-GEMM), colony-forming unit-erythroid (CFU-E) and erythroid burst-forming units (BFU-E) were identified and quantified following the manufacturer's instructions. Colonies were counted 14 days after plating using a Nikon TS100F microscope. Fifty or more cells were considered one colony. Data were expressed as mean f standard error of mean (SEM). Statistical significance was determined between irradiated vehicle treated and RWJ-800088-treated groups.

Experiment [1] relates to CD2F1 mice exposed to TBI (7 Gy). Nature of the experiment: Sternal bone marrow histopathology (cellularity, megakaryocytes) after 7 Gy TBI. In kind it is in vivo, mouse. The conditions noted are these: day 7 post-TBI 7 Gy; 24 h pre-TBI administration. Here is the method: Sternal histopathology: Following blood collection, animals were euthanized, and the sterna were collected on 0 (2 h post-TBI), 1, 3, 7, 15 and 30 days post-TBI. The sterna were fixed in a 20:1 volume of fixative (10^0/% buffered formalin) to tissue for at least 24 h and up to 7 days. Fixed sterna were decalcified for 3 h in 12-18% sodium EDTA (pH 7.4-7.5), and specimens were dehydrated using graded ethanol concentrations and embedded in paraffin. Longitudinal 5 μm sections were stained with regular hematoxylin and eosin (H&E) stain. A board-certified veterinary pathologist conducted blinded histopathological evaluation of these samples. The bone marrow was evaluated in situ within sternebrae and graded for total cellularity and megakaryocyte numbers averaged per 10 high power fields at 40× magnification using a BX41 Olympus microscope (Olympus Corporation, Minneapolis, Minn.). […]
Bone marrow cellularity and architecture of CD2F1 mice treated 24 h pre-TBI with vehicle or RWJ-800088 were evaluated by the AFRRI pathologist (FIG. 8). Bone marrow cellularity was determined by evaluating the amount of adipose (fat) tissue versus hematopoietic cells (minus, mature red blood cells) on one (10×) high power field (HPF). […]
Samples were collected on different days post-TBI up to day 30. […] Megakaryocytes were evaluated by averaging the number of cells per 10 (40×) high power fields (HPFs). […]

Experiment [2] concerns male BALB/c mice treated with carboplatin. In words: Carboplatin induced thrombocytopenia, anemia, mortality and brain microangiopathic events in mice. In kind it is in vivo, mouse. Here is the method: Materials and Methods: Increasing doses of carboplatin (i.e., 60, 70, or 80 mg/kg, i.p.) were administered on 2 consecutive days (Day 1 and Day 0) to male BALB/c mice (N=3 per group). Approximately 1 hour after carboplatin treatment on Day 0, sets of mice were treated with vehicle or RWJ-800088 (100 μg/kg, i.v.).
On Day 15, surviving mice were euthanized and blood samples were collected for the assessment of platelet and red blood cell (RBC) parameters. The brains of the mice were also isolated and preserved in 10% buffered formalin for immunohistochemical staining using anti-fibrinogen antibodies. Control mice were processed in a similar manner.

Experiment [3] has as its system Rats, prostate irradiation. Nature of the experiment: Prostate irradiation in rats (Table 6). In kind it is in vivo, rat. The conditions noted are these: 3 mg/kg, whole wrapped cell: Protection of vascular size and function.
The test system of a further experiment is mice surviving TBI. Nature of the experiment: Long-term blood cells, bone marrow and kidney staining in TBI survivors (Example 5). In kind it is in vivo, mouse. As to the method:
Methods: During the above Experiment 4, four studies were performed as follows:
Study A: A subset of the animals were sacrificed at 1, 6, and 12 months. Blood was collected and blood cells counted, and femurs were collected, bone marrow isolated and cultured to analyze for colony forming units;
Study B: A subset of the animals were sacrificed at 1 and 6 months. Sterna were collected from these animals, fixed, sectioned, stained with H&E (Hematoxylin and eosin), and megakaryocytes counted;
Study C: A subset of the animals were sacrificed at 1 and 6 months. Kidneys were collected from these animals, fixed, sectioned, stained with β-Catenin or E-cadherin: and
Study D: A subset of the animals were sacrificed at 1 and 6 months. Kidneys were collected from these animals, fixed, sectioned, stained with β-galactosidase, a marker of senescence.

Where [4] appears, read: carboplatin 70 mg/kg, RWJ-800088 100 μg/kg i.v., Day 15.
The mark [5] stands for this setting: 1 and 6 months post TBI (FIG. 25).

Square brackets hold non-standard residues; d marks the D form. * marks the point of attachment. 2Nal = N[C@@H](Cc1ccc2ccccc2c1)C(=O)O; Propionyl = CCC(=O)*; Sar = CNCC(=O)O

For “methoxypolyethyleneglycol20000-propionyl-L-Isoleucyl-L-Glutamyl-Glycyl-L-Prolyl-L-Threonyl-L-Leucyl-L-Arginyl-L-Glutaminyl-L-2-Naphthylalanyl-L-Leucyl-L-Alanyl-L-Alanyl-L-Arginyl-Sarcosyl-Ne-(methoxypolyethyleneglycol20000-propionyl-L-Isoleucyl-L-Glutamyl-Glycyl-L-Prolyl-L-Threonyl-L-Leucyl-L-Arginyl-L-Glutaminyl-L-2-Naphthylalanyl-L-Leucyl-L-Alanyl-L-Alanyl-L-Arginyl-Sarcosyl-)-Lysinamide ({mPEG 20 kDa-Propionyl}-IEGPTLRQ[2Nal]LAAR[Sar]K-NH2; also: dimer: second identical mPEG-propionyl chain on Lys Nε of C-terminal lysinamide) [RWJ-800088]”, the “total number of colonies in the vehicle-treated group compared to the RWJ-800088 treated group” value in the experiment on mouse bone marrow cells (day 15 post-TBI 7 Gy, 24 h pre-TBI administration) is listed as “significantly lower”. In addition, in the experiment with mouse bone marrow cells (day 30 post-TBI 7 Gy), the “GM, GEMM, BFU-E and CFU-E, vehicle-treated vs RWJ-800088 treated groups” value was “significantly lower (p<0.0001)”. In addition, the “megakaryocytes counts in sternal bone marrow” value in experiment [1] is “significant recovery”. Besides, the Effects result in experiment [2] (Mice, carboplatin chemotherapy, whole wrapped cell: Protection against thrombocytopenia, anemia and vascular hemorrhage in the brain) is “Protection against”. Moreover, in experiment [2] (setting [4]), the “fibrinogen staining of brain sections (immunohistochemistry)” value is “appeared normal with the intensity of fibrinogen staining similar to vessels in the brains of control mice” and the “signs of hemorrhage or edema in brain” value was “none of the brains isolated from mice co-treated with RWJ-800088 exhibited signs of hemorrhage or edema”. In addition, the “platelet and RBC counts on Day 15” value in experiment [2] (carboplatin 60, 70 or 80 mg/kg i.p. on 2 consecutive days, RWJ-800088 100 μg/kg i.v. ~1 hour after carboplatin on Day 0) was “prevented the observed decreases in platelet and RBC counts”. For the same substance, in experiment [2] (carboplatin 60-80 mg/kg i.p. x2 days, RWJ-800088 100 μg/kg i.v.), the mortality / euthanization result is “none of the mice treated with RWJ-800088 died or required euthanization”. Further, the Effects entry in experiment [3] is reported as “Protection of vascular size”. Besides, in the experiment with mice surviving TBI (setting [5]), the “E-cadherin expression in kidney vs vehicle” value is on record as “higher” and the “β-Catenin expression in kidney” value is reported as “decreases β-Catenin expression”. The “β-galactosidase staining in kidney (marker of senescence)” value in the experiment with mice surviving TBI (1 and 6 months post TBI (FIG. 26, 27)) was “protects from cellular senescence”. For the same substance, in the experiment on mice surviving TBI (1 and 6 months post irradiation), the “megakaryocytes in sterna vs vehicle (saline)” value is on record as “significantly higher numbers of megakaryocytes”. In addition, the “blood cell types (white blood cells, lymphocytes, neutrophils, platelets, red blood cells) vs vehicle” value with mice surviving TBI (6 months and 12 months post TBI) is given as “increased in number”. Moreover, in the experiment with mice surviving TBI (6 months post TBI (FIG. 23)), the “colony forming units in isolated bone marrow vs vehicle” value is given as “more colony forming units”.

Source of the values: patent publication US20220168392A1 (priority 2019, published 2022).
